# Laboratory results as given in publication PMC7797213, “Vascular effects of serelaxin in patients with stable coronary artery disease: a randomized placebo-controlled trial” (Cardiovascular Research, 2020).
# System: patients with stable coronary artery disease
# Assay: Applanation tonometry carotid-femoral pulse wave velocity (PWV)
# Assay type: in vivo, human
# Conditions: for PWV, absolute value: mean ± SD; for PWV, adjusted mean difference serelaxin versus placebo / PWV, change from baseline (adjusted mean): repeated measures ANCOVA
# Protocol: Secondary endpoints included: the change from baseline in AIx and pulse wave velocity (PWV) assessed at the end of treatment, Day 30 and Day 180; aortic distensibility (assessed with CMR and PWV methods) at the end of treatment; pharmacokinetics and safety (adverse events, serious adverse events, and vital signs) of 48 h infusion of serelaxin 30 μg/kg/day. The changes in levels of circulating biomarkers of cardiorenal and vascular function during and after treatment with serelaxin were also assessed as part of the exploratory endpoints.
# The applanation tonometry assessments were performed by blinded operators. Augmentation index [AIx = (augmentation pressure/pulse pressure) × 100], and carotid-femoral PWV were measured by applanation tonometry (Sphygmocor®, AtCor Medical, Australia) at a proximal (carotid artery) and a distal (femoral artery) site of the body, utilizing R-wave gated determination of the time interval between the two measurement points. An averaged carotid pressure waveform (from a 10 s recording) was converted into a corresponding central waveform using a validated transfer function (SphygmoCor®, AtCor, Australia).[27]^,[28]
substance,measurement,setting,value
Serelaxin,"PWV, absolute value","0 h (pre-dose baseline), n=22",7.45 ± 2.05 (22) meters/second
same,"PWV, adjusted mean difference serelaxin versus placebo",24 h,-0.157 meters/second
same,"PWV, adjusted mean difference serelaxin versus placebo","24 h, listed as serelaxin",−0.16 meters/second
same,"PWV, change from baseline (adjusted mean)","24 h, n=19",-0.54 meters/second
same,"PWV, absolute value","24 h post-dose, n=19",7.05 ± 1.88 (19) meters/second
same,"PWV, adjusted mean difference serelaxin versus placebo",47 h,-0.34 meters/second
same,"PWV, change from baseline (adjusted mean)","47 h, n=21",-0.26 meters/second
same,"PWV, absolute value","47 h post-dose, n=22",7.20 ± 1.92 (22) meters/second
same,"PWV, absolute value","Day 30, n=23",7.99 ± 1.82 (23) meters/second
same,"PWV, adjusted mean difference serelaxin versus placebo",Day 30,-0.06 meters/second
same,"PWV, adjusted mean difference serelaxin versus placebo","Day 30, listed as serelaxin",−0.06 meters/second
same,"PWV, change from baseline (adjusted mean)","Day 30, n=20",0.35 meters/second
same,"PWV, absolute value","Day 180, n=23",8.34 ± 2.11 (23) meters/second
same,"PWV, adjusted mean difference serelaxin versus placebo",Day 180,0.12 meters/second
same,"PWV, change from baseline (adjusted mean)","Day 180, n=20",0.93 meters/second
